Data as given in US20240238274A1, “INHIBITORS OF UBIQUITIN SPECIFIC PEPTIDASE 22 (USP22) AND USES THEREOF FOR TREATING DISEASE AND DISORDERS” (Northwestern University, priority 2021, published 2024).

Experiments:
LLC1 lung carcinoma = assay: LLC1 tumor model in WT mice; type: in vivo
Method: FIG. 6: Usp22 inhibitor administration enhances antitumor immunity. A, Structure of compound CS30 (Usp22i-S02). B, FOXP3 MFI in WT and 22KO of Treg cells after treatment with 20 mg/kg of Usp22i-S02 in vivo (n=3). C, Representative flow cytometry plot of FOXP3+CD25+ MFI of CD4+ peripheral cells of mice treated with 20 mg/kg of Usp22i-S02 relative to control (n=5). D, Graphical representation of Foxp3 MFI upon Usp22i-S02 administration (n=5). E, Tumor growth curve of LLC1 cells subcutaneously injected in the flank of WT mice with or without the addition of 20 mg/kg/time of the Usp22 inhibitor starting at day 15, in 100 μL of oil (n=4). F-G, Representative flow cytometry plot and graphical representation of % infiltration of CD4+ and CD8+ T cells within the tumor (n=4). H, Representative histogram plot and graphical representation of itTreg Foxp3 MFI (n=4). I, MFI of itTreg suppressive markers (n=3-4). J, Percent Foxp3+IFNg+ itTreg cells in control and Usp22-S02 treated mice (n=3-4). B, D-E, G, H-I Two-way ANOVA with multiple comparisons between rows was performed to determine statistical significance. J, Unpaired two tailed T test was performed to determine significance. All data are presented as mean±stdev. NS, not significant. *P<0.05, **P<0.01, ***P<0.001, ****P<0.0001.
FIG. 16: Usp22i-S02 has little effect on naïve mice, yet enhances anti-tumor immunity in LLC1-challenged mice. A, Body weight of Usp22i-S02 treated mice verses DMSO treated controls over the course of treatment (n=4). A-F. Injections were twice a day for 3 consecutive days at 10 mg/kg (n=4). B, Percent of cell populations in naïve mice treated with Usp22i-S02 relative to DMSO control (n=3-4). C, Percent of KI-67+ cells in various compartments in naïve mice treated with Usp22i-S02 relative to DMSO control (n=3-4). D, Percent CD44^hiCD62L^10 in T cell populations gated on CD45+ cells in naïve mice treated with Usp22i-S02 relative to DMSO control (n=3). E, Percent Annexin+PI+ T cells gates on CD45+ cells in naïve mice treated with Usp22i-S02 relative to DMSO control (n=4). […]

LLC1 cells = LLC1 cells in vitro: counts, viability, growth; type: cell-based
Method: (§1) FIG. 17: Usp22i-S02 inhibits tumor growth in vitro and in vivo. A, In vitro counts of LLC1 after treatment with Usp22i-S02 under various concentrations for 24 hours (n=2). B, In vitro viability of LLC1 after treatment with Usp22i-S02 under various concentrations for 24 hours (n=2). C, In vitro relative growth of LLC1 cells treated with 10 ug/ml of Usp22i-S02 relative to DMSO treated control for 7 days via OD600 (n=4). D, Growth curve of 1 million subcutaneously injected LLC1 cells into RAG−/− mice treated for 3 days Usp22i-S02 relative to DMSO control injections at day 15 of tumor growth (n=4). C-D, Two-way ANOVA with Sidaks's multiple comparisons between rows relative to control was performed to determine statistical significance. All data are presented as mean±stdev. NS, not significant. *P<0.05, **P<0.01, ***P<0.001, ****P<0.0001.
(§2) As Usp22 is also an important oncogene (43, 44), we were interested in the potential dual-therapeutic function of Usp22i-S02.

LLC1 tumors = assay: Established LLC1 tumors in Rag−/− mice; type: in vivo; details: Rag−/− mice with established LLC1 tumors, treated 3 days
Method: as §1, §2

SMILES: N#Cc1c2c(c(Nc3ccccc3)n3c1nc1ccccc13)CCCC2 [Chemical S02, 11-anilino-7,8,9,10-tetrahydro-benzimidazo [1,2-b] isoquinoline-6-carbonitrile]
- intratumoral Foxp3+ Treg percentage (LLC1 lung carcinoma; LLC1 tumors, not splenic): significantly decreased
- Teff cell tumor infiltration (LLC1 lung carcinoma; established LLC1 tumors): significant increase in Teff cell tumor infiltration
- tumor rejection (LLC1 lung carcinoma; established LLC1 tumors, 20 mg/kg/time vs untreated): striking tumor rejection
- tumor cell counts, viability and growth (LLC1 cells): decreased tumor cell counts, viability, and growth
- tumor growth (LLC1 tumors): small but statistically significant decrease in tumor growth
